Measured values: patent publication US20160303189A1, “Applications of Recombined Ganoderma Lucidum Immunoregulation Protein in Preparing Drugs for Treating Tissue Fibrosis” (priority 2014, published 2016)

Tests used:
[1] = system: myocardial tissue of mice (myocardial fibrosis model); test: Establishment of Dox mice myocardial fibrosis models, histological grading;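 further: mice given Dox by injection twice weekly, hearts fixed in paraformaldehyde and scored histologically, with sampling on days 35, 42 and 49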
Experimental: 100 female Kunming mice weighed 18-22 g were picked and divided into 5 groups: saline group, model group 1 (Dox 1 mg/kg), model group 2 (Dox 2 mg/kg), model group 3 (Dox 3 mg/kg) model group 4 (Dox 4 mg/kg), the number of mice in each group were 15, 15, 25, 30 and 15. Twice a week, every mouse was injected 2000 every time, in which 1 mg/kg Dox, 2 mg/kg Dox, 3 mg/kg Dox or 4 mg/kg Dox was dissolved.
The activities of the mice were closely watched and deaths of the mice were recorded every day at 5:00 pm and 9:00 am. Three days, the 35th the 42nd and the 49th day were chosen to take samples. After deaths, hearts of the mice were taken and rinsed with cold PBS and placed on a clean dry filter paper, then they were put into paraformaldehyde solution to be fixed. The models to assess myocardial fibrosis were established according to histological analysis, the changes in ventricular cavity of the mice, perivascular fibrosis, interstitial fibrosis, and vacuole formation and other changes were taken into consideration to determine whether the model was useable.

[2] = system: mice (renal fibrosis model); test: Model making of renal fibrosis of mice with cisplatin (CDDP), survival and weight; assay type: in vivo
Experimental: The number of mice in each group was 12, 12 and 12. They were given intraperitoneal injections for 200 μl/per time/per mouse for 5 consecutive days, and the injectionvolumes contained the appropriate doses of cisplatin (CDDP). On the 1st, the 3rd, the 5th, the 7th, the 14th and the 28th days the mice were weighed and the statistics for the survival rates in each group were recorded.

[3] = system: BLM-induced pulmonary fibrosis; test: Effect of rLZ-8 on BLM-induced pulmonary fibrosis of mice, Szapiel grading; assay type: in vivo; details: Group F: positive drug dexamethasone 4 mg/kg injected, n=12
Text: Experiment groups: there were 7 groups in the experiment and 12 mice in each group. The groups were a saline group (group A), a model group (group B), a low treatment dose group (group C), a medium dose group (group D), a high dose group (group E), a positive control group (group F) and an administration group one week after modeling (group G). The process of modeling was the same as the embodiment 1.
Treating process: groups B, C, D, E, F and G all adopted low BLM dose for modeling. Group A and Group B were injected with saline for serving as contrast groups; Groups C, D and E were injected with rLZ-8 each day for treatment. Mice in these groups were weighed every 3 days and drugs were administrated according to weights of the mice. The dose for Group C was 3.84375 μg/kg, the dose for Group D was 7.6875 μg/kg, the dose for Group E was 19.21875 μg/kg, Group F were injected with positive drug dexamethasone 4 mg/kg, Group G were injected with rLZ-8 for treatment 1 week after modeling and the dose was 7.6875 μg/kg.
On the 14th day and the 21st day, 6 mice were randomly picked and killed in each group. Lungs of the mice were taken out to watch the color of the lungs, if the surface was intact or not, and the changes in the lung surface; parts of the lung tissue were paraffin sectioned and HE stained to be examined histologically; other parts were done with RT-PCR to examine the RNA level. According to histological analysis, RNA level, protein level and the change in the amount of inflammatory cells, the grades of fibrosis were decided.

[4] = Dox accumulated dose 30, 10 mice
[5] = Dox accumulated dose 36, 10 mice
[6] = Dox accumulated dose 42 (3 mg/kg twice a week for 7 weeks), 9 mice

COc1cccc2c1C(=O)c1c(O)c3c(c(O)c1C2=O)C[C@@](O)(C(=O)CO)C[C@@H]3O[C@H]1C[C@H](N)[C@H](O)[C@H](C)O1 [Doxorubicin]
Interstitial Fibrosis grade 0, number of mice [1, 4]: 9
Interstitial Fibrosis grade +++, number of mice [1, 4]: 0
Interstitial Fibrosis grade ++, number of mice [1, 4]: 0
Interstitial Fibrosis grade +, number of mice [1, 4]: 1
Number of deaths [1, 4]: 0
Perivascular Fibrosis grade 0, number of mice [1, 4]: 7
Perivascular Fibrosis grade +++, number of mice [1, 4]: 0
Perivascular Fibrosis grade ++, number of mice [1, 4]: 0
Perivascular Fibrosis grade +, number of mice [1, 4]: 3
Vacuolization grade 0, number of mice [1, 4]: 10
Vacuolization grade +++, number of mice [1, 4]: 0
Vacuolization grade ++, number of mice [1, 4]: 0
Vacuolization grade +, number of mice [1, 4]: 0
Interstitial Fibrosis grade 0, number of mice [1, 5]: 10
Interstitial Fibrosis grade +++, number of mice [1, 5]: 0
Interstitial Fibrosis grade ++, number of mice [1, 5]: 0
Interstitial Fibrosis grade +, number of mice [1, 5]: 0
Number of deaths [1, 5]: 0
Perivascular Fibrosis grade 0, number of mice [1, 5]: 7
Perivascular Fibrosis grade +++, number of mice [1, 5]: 0
Perivascular Fibrosis grade ++, number of mice [1, 5]: 1
Perivascular Fibrosis grade +, number of mice [1, 5]: 2
Vacuolization grade 0, number of mice [1, 5]: 9
Vacuolization grade +++, number of mice [1, 5]: 0
Vacuolization grade ++, number of mice [1, 5]: 0
Vacuolization grade +, number of mice [1, 5]: 1
Interstitial Fibrosis grade 0, number of mice [1, 6]: 5
Interstitial Fibrosis grade +++, number of mice [1, 6]: 1
Interstitial Fibrosis grade ++, number of mice [1, 6]: 2
Interstitial Fibrosis grade +, number of mice [1, 6]: 1
Number of deaths [1, 6]: 0
Perivascular Fibrosis grade 0, number of mice [1, 6]: 4
Perivascular Fibrosis grade +++, number of mice [1, 6]: 1
Perivascular Fibrosis grade ++, number of mice [1, 6]: 2
Perivascular Fibrosis grade +, number of mice [1, 6]: 2
Vacuolization grade 0, number of mice [1, 6]: 4
Vacuolization grade +++, number of mice [1, 6]: 1
Vacuolization grade ++, number of mice [1, 6]: 2
Vacuolization grade +, number of mice [1, 6]: 2

N.N.[Cl][Pt][Cl] [cisplatin]
survival rate ([2]; CDDP 5 mg/kg intraperitoneal, 5 consecutive days, 28th day): 90%
survival rate ([2]; CDDP 7 mg/kg intraperitoneal, 5 consecutive days, 7th day): 60%
mice survived ([2]; CDDP 7 mg/kg intraperitoneal, 5 consecutive days, 28th day): 30%
effect on weight of mice ([2]; cisplatin 5 mg/kg doses): weight loss

C[C@@H]1C[C@H]2[C@@H]3CCC4=CC(=O)C=C[C@]4(C)[C@@]3(F)[C@@H](O)C[C@]2(C)[C@@]1(O)C(=O)CO [dexamethasone]
number of mice with Szapiel grade 0 (no fibrosis) [3]: 0
number of mice with Szapiel grade I (mild) [3]: 3
number of mice with Szapiel grade II (medium) [3]: 5
number of mice with Szapiel grade III (severe) [3]: 4
